According to patent publication US20250360167A1 (Keryx Biopharmaceuticals, Inc., priority 2013, published 2025):

System: Product Of Calcium And Phosphorus
Experiment: Phase 3 trial (Example 1): phosphorus times calcium product
Type: in vivo, human
Experimental: Serum phosphorus and calcium were performed at Screening (Visit 0); weekly during the Washout Period after Visit 1 (Week −2); at Visit 4 (Randomization Visit); at Visits 5 (Week 1), 6 (Week 2), 7 (Week 4), 8 (Week 6), 9 (Week 8), 10 (Week 10), 11 (Week 12), 12 (Week 16), 13 (Week 20), 14 (Week 24), 15 (Week 28), 16 (Week 32), 17 (Week 36), 18 (Week 40), 19 (Week 44), 20 (Week 48), and 21 (Week 52) of the 52-week Safety Assessment Period; and at Visits 22 (Week 53), 23 (Week 54), 24 (Week 55) and 25 (Week 56) of the Efficacy Assessment Period.
These variables will be analyzed using LOCF methodology. ANCOVA will be employed. The model will include treatment (fixed effect), and Visit-4 baseline (covariate). An analysis using MMRM method will be conducted as a sensitivity analysis. The least square mean estimates of the treatment effects as well as the 2-sided 95% confidence intervals (CI) of the treatment effects will be derived.
• 1. Change in serum calcium concentration at Weeks 12, 24, 36, 48, and 52 as compared to baseline (Visit 4). This variable will be analyzed using LOCF methodology. ANCOVA will be employed. The model will include treatment (fixed effect), and baseline (covariate). • 2. Change in ferritin, and TSAT at Weeks 12, 24, 36 and 48 as compared to baseline (Visit 4). This variable will be analyzed using LOCF methodology. ANCOVA will be employed. The model will include treatment (fixed effect), and baseline (covariate). • 3. Change in serum iron and TIBC at Weeks 12, 24, 36, 48, and 52 as compared to baseline (Visit 4). This variable will be analyzed using LOCF methodology. ANCOVA will be employed. The model will include treatment (fixed effect), and baseline (covariate). • 4. Change in Ca x P product at Weeks 12, 24, 36, 48, and 52 as compared to baseline (Visit 4). This variable will be analyzed using LOCF methodology. ANCOVA will be employed. The model will include treatment (fixed effect), and baseline (covariate). • 5. Change in iPTH at Weeks 12, 36, 52, and 56 as compared to baseline (Visit 4). This variable will be analyzed using LOCF methodology. ANCOVA will be employed. The model will include treatment (fixed effect), and baseline (covariate). • 6. Change in serum […], vitamin A, vitamin B-12, vitamin E, vitamin K and folic acid at Weeks 12, 36, and 52 as compared to baseline (Visit 4). This variable will be analyzed using LOCF methodology. ANCOVA will be employed. The model will include treatment (fixed effect), and baseline (covariate). • 7. Change in serum bicarbonate concentration at Weeks 12, 36, and 52 as compared to baseline (Visit 4). This variable will be analyzed using LOCF methodology. ANCOVA will be employed. The model will include treatment (fixed effect), and baseline (covariate). • 8. Change in IV iron intake at Weeks 12, 24, 36, 48, and 52 as compared to baseline (Visit 4). This variable will be analyzed using LOCF methodology. ANCOVA will be employed. The model will include treatment (fixed effect), and baseline (covariate). • 9. Change in the use of EPO (ESA) administered at Weeks 12, 24, 36, 48, and 52 as compared to baseline (Visit 4). This variable will be analyzed using LOCF methodology. ANCOVA will be employed. The model will include treatment (fixed effect), and baseline (covariate). • 10. Change in the use of Vitamin D supplementation (and its analogs) and Sensipar (cinacalcet) at Weeks 12, 24, 36, 48, and 52 as compared to baseline (Visit 4). This variable will be analyzed using LOCF methodology. ANCOVA will be employed. The model will include treatment (fixed effect), and baseline (covariate). • 11. Change in LDL, HDL, and triglycerides at Weeks 12, 36, and 52 as compared to baseline (Visit 4). This variable will be analyzed using LOCF methodology. ANCOVA will be employed. The model will include treatment (fixed effect), and baseline (covariate).

For “iron (+3), x (1, 2, 3-propanetricarboxylic acid, 2-hydroxy-), y (H2O) [KRX-0502]”, the “Product Of Calcium And Phosphorus, Mean” value (Baseline, Table 12) was 65.4075, the “Product Of Calcium And Phosphorus, Median” value (Baseline, Table 12) was 62.7000 and the “Product Of Calcium And Phosphorus, Week 12 Change from Baseline, Mean” value (Table 12) was −16.5635. The “Product Of Calcium And Phosphorus, Week 12 Change from Baseline, Median” value (Table 12) was −16.7400, the “Product Of Calcium And Phosphorus, LS Mean” value (Week 12, ANCOVA, Table 12) was 48.97 and the “Product Of Calcium And Phosphorus, Mean” value (Week 12, Table 12) was 48.8440. The “Product Of Calcium And Phosphorus, Median” value (Week 12, Table 12) was 47.5000 and the “Product Of Calcium And Phosphorus, Treatment Differences, LS Mean (KRX-0502) − LS Mean (Control)” value (Week 12, control = sevelamer carbonate as a single agent) was 1.45.
